Measurements: patent US20090048301A1 (IMCLONE SYSTEMS INCORPORATED, priority 2003, published 2009)

The compounds below were run on bovine tubulin (assay: In vitro tubulin polymerization assay (turbidity at 340 nm)). Details: 10 μM compound, 30 minute data point, vs 1% DMSO control.
Type: biochemical
Experimental: Briefly, tubulin polymerization is a kinetic process that is temperature-dependent and requires GTP and was performed as follows. Soluble tubulin dimers polymerize into microtubules upon warming, and polymerization in vitro correlates with an increase in turbidity (measured at 340 nm). Lyophilized bovine tubulin (HTS Tubulin—97% tubulin, <3% MAPs—Cytoskeleton Inc.) was ressuspended in G-PEM buffer (80 mM PIPES pH 7, 1 mM EGTA, 1 mM MgCl2, 1 mM GTP, 5% glycerol) to a final concentration of 3 mg/ml and kept at 4° C. Compounds in 100× stock solutions in DMSO were dotted to pre-warmed 96-well plates (Corning Costar 3696), the plates were transferred to a 37° C. plate reader (SPECTRAmax Plus, Molecular Devices), cold tubulin was added to the wells, and the plates were shaken for mixing. The absorbance at 340 nm was determined at one minute intervals for 30 minutes. Kinetic curves with 30 points each were collected for each compound, and the dynamic range was between 0 and 0.4 OD units. The percentage inhibition values were calculated using the 30 minute data point and based on control samples (treated with 1% DMSO only). The assay is a modified version of the HTS kit sold by Cytoskeleton (1830 S. Acoma St., Denver, Colo.), adapted to maximize throughput and reduce time, without reduction in dynamic range or sensitivity, while retaining the ability to detect compounds that inhibit or enhance tubulin polymerization.
Tubulin polymerization is a kinetic process that is temperature-dependent and requires GTP. Soluble tubulin dimers polymerize into microtubules upon warming, and polymerization in vitro correlates with an increase in turbidity (measured at 340 nm). Liophilized bovine tubulin (HTS Tubulin—97% tubulin, <3% MAPs—Cytoskeleton Inc.) was ressuspended in G-PEM buffer (80 mM PIPES pH 7, 1 mM EGTA, 1 mM MgCl2, 1 mM GTP, 5% glycerol) to a final concentration of 3 mg/ml and kept at 4° C. Compounds in 100× stock solutions in DMSO were dotted to pre-warmed 96-well plates (Corning Costar 3696), the plates were immediately transferred to a 37° C. plate reader (SPECTRAmax Plus, Molecular Devices), cold tubulin was added to the wells, plates were shaken for mixing, and absorbance at 340 nm was read every minute for 30 minutes. Kinetic curves with 30 points each were collected for each compound, and the dynamic range was between 0 and 0.4 OD units. Percentage inhibition values were calculated using the 30 minute data point, based on control samples (treated with 1% DMSO only). This assay is a modified version of the HTS kit sold by Cytoskeleton, adapted to maximize throughput and reduce time, without reduction in dynamic range or sensitivity, while retaining the ability to detect compounds that inhibit or enhance tubulin polymerization.

Row | Compound | Tubulin Assay: percent inhibition at 10 μM based on 30 minute data [%]
1 | c1cncc(CCNc2ncccc2-c2nnc(Nc3ccc4c(c3)OCCO4)[nH]2)c1 [Compound 41, {3-[5-(2,3-Dihydro-benzo[1,4]dioxin-6-ylamino)-4H-[1,2,4]triazol-3-yl]-pyridin-2-yl}-(2-pyridin-3-yl-ethyl)-amine] | 23
2 | O=[N+]([O-])c1ccccc1-c1nnc(Nc2ccc3c(c2)OCCO3)[nH]1 [Compound 127a, (2,3-Dihydro-benzo[1,4]dioxin-6-yl)-[5-(2-nitro-phenyl)-4H-[1,2,4]triazol-3-yl]-amine] | 22
3 | COc1ccc(Nc2nnc(-c3cccnc3Nc3ccc4cn[nH]c4c3)[nH]2)cc1 [Compound 19, (1H-Indazol-6-yl)-{3-[5-(4-methoxy-phenylamino)-4H-[1,2,4]triazol-3-yl]-pyridin-2-yl}-amine] | 20
4 | COc1cc(Nc2ncccc2-c2nnc(-c3ccc4c(c3)OCO4)[nH]2)cc(OC)c1 [Compound 93, [3-(5-Benzo[1,3]dioxol-5-yl-4H-[1,2,4]triazol-3-yl)-pyridin-2-yl]-(3,5-dimethoxy-phenyl)-amine] | 28
5 | Fc1ccc(-c2nnc(-c3cccnc3NCc3ccc4c(c3)OCO4)[nH]2)cc1Cl [Compound 81, Benzo[1,3]dioxol-5-ylmethyl-{3-[5-(3-chloro-4-fluoro-phenyl)-4H-[1,2,4]triazol-3-yl]-pyridin-2-yl}-amine] | 20
6 | COc1ccc(CNc2nnc(-c3ccccc3NCc3ccncc3)[nH]2)cc1 [Compound 113, (4-Methoxy-benzyl)-(5-{2-[(pyridin-4-ylmethyl)-amino]-phenyl}-4H-[1,2,4]triazol-3-yl)-amine] | 24
7 | CN1CCN(c2ccc(-c3nnc(Nc4ccc5c(c4)OCCO5)o3)c([N+](=O)[O-])c2)CC1 [Compound 236, (2,3-Dihydro-benzo[1,4]dioxin-6-yl)-{5-[4-(4-methyl-piperazin-1-yl)-2-nitro-phenyl]-[1,3,4]oxadiazol-2-yl}-amine] | 59
8 | c1cnc(NCC2CCCO2)c(-c2nnc(Nc3ccc4c(c3)OCO4)o2)c1 (centres unmarked) [Compound 174, {3-[5-(Benzo[1,3]dioxol-5-ylamino)-[1,3,4]oxadiazol-2-yl]-pyridin-2-yl}-(tetrahydro-furan-2-ylmethyl)-amine] | 64
9 | COc1ccc(Nc2nnc(-c3cccnc3NCc3cccnc3)[nH]2)cc1 [Compound 26, {3-[5-(4-Methoxy-phenylamino)-4H-[1,2,4]triazol-3-yl]-pyridin-2-yl}-pyridin-3-ylmethyl-amine] | 20
10 | FC(F)(F)Oc1cccc(-c2nnc(-c3ccccc3NCc3ccc4[nH]cnc4c3)[nH]2)c1 [Compound 144, (1H-Benzoimidazol-5-ylmethyl)-{2-[5-(3-trifluoromethoxy-phenyl)-4H-[1,2,4]triazol-3-yl]-phenyl}-amine] | 86
11 | COc1cc(Nc2ncccc2-c2nnc(NS(=O)(=O)c3cccc(OC)c3)o2)cc(OC)c1 [Compound 243, N-{5-[2-(3,5-Dimethoxy-phenylamino)-pyridin-3-yl]-[1,3,4]oxadiazol-2-yl}-3-methoxy-benzenesulfonamide] | 55
12 | c1cncc(CCNc2ncccc2-c2nnc(Nc3ccc4c(c3)OCCO4)o2)c1 [Compound 201, {3-[5-(2,3-Dihydro-benzo[1,4]dioxin-6-ylamino)-[1,3,4]oxadiazol-2-yl]-pyridin-2-yl}-(2-pyridin-3-yl-ethyl)-amine] | 23
13 | COc1cc(Nc2nnc(-c3cccnc3NCc3ccc(F)c(F)c3)o2)cc(OC)c1OC [Compound 167, (3,4-Difluoro-benzyl)-{3-[5-(3,4,5-trimethoxy-phenylamino)-[1,3,4]oxadiazol-2-yl]-pyridin-2-yl}-amine] | 99
14 | COc1cc(CNc2ccccc2-c2nnc(-c3cccc(OC(F)(F)F)c3)[nH]2)cc(OC)c1 [Compound 143, (3,5-Dimethoxy-benzyl)-{2-[5-(3-trifluoromethoxy-phenyl)-4H-[1,2,4]triazol-3-yl]-phenyl}-amine] | 46
15 | CS(=O)(=O)c1ccc(-c2nnc(-c3ccc(C(F)(F)F)cc3NCc3ccncc3)[nH]2)cc1 [Compound 153, {2-[5-(4-Methanesulfonyl-phenyl)-4H-[1,2,4]triazol-3-yl]-5-trifluoromethyl-phenyl}-pyridin-4-ylmethyl-amine] | 54
16 | COc1cccc(Nc2ncc(-c3ccccc3NCc3ccc(F)c(F)c3)o2)c1 [Compound 252, {5-[2-(3,4-Difluoro-benzylamino)-phenyl]-oxazol-2-yl}-(3-methoxy-phenyl)-amine] | 27
17 | c1ccc(-c2cnc(Nc3ccc4c(c3)OCCO4)o2)c(NCc2ccc3c(c2)OCCO3)c1 [Compound 245, (2,3-Dihydro-benzo[1,4]dioxin-6-yl)-(5-{2-[(2,3-dihydro-benzo[1,4]dioxin-6-ylmethyl)-amino]-phenyl}-oxazol-2-yl)-amine] | 93
18 | c1ccc(-c2nnc(Nc3ccc4c(c3)OCCO4)o2)c(NCc2ncc[nH]2)c1 [Compound 220, (2,3-Dihydro-benzo[1,4]dioxin-6-yl)-(5-{2-[(1H-imidazol-2-ylmethyl)-amino]-phenyl}-[1,3,4]oxadiazol-2-yl)-amine] | 79
19 | COc1cccc(Nc2ncc(-c3ccccc3OCc3cccnc3)o2)c1 [Compound 257, (3-Methoxy-phenyl)-{5-[2-(pyridin-3-ylmethoxy)-phenyl]-oxazol-2-yl}-amine] | 27
20 | c1ccc(-c2nnc(Nc3ccc4c(c3)OCCO4)o2)c(NCc2ccc3ncccc3c2)c1 [Compound 227, (2,3-Dihydro-benzo[1,4]dioxin-6-yl)-(5-{2-[(quinolin-6-ylmethyl)-amino]-phenyl}-[1,3,4]oxadiazol-2-yl)-amine] | 99
21 | COc1cccc(-c2nnc(-c3ccccc3NCc3ccc4cn[nH]c4c3)[nH]2)c1 [Compound 149, (1H-Indazol-6-ylmethyl)-{2-[5-(3-methoxy-phenyl)-4H-[1,2,4]triazol-3-yl]-phenyl}-amine] | 26
22 | Cn1nc(-c2cccnc2NCc2ccncc2)nc1Nc1ccc2c(c1)OCCO2 [Compound 68, {3-[5-(2,3-Dihydro-benzo[1,4]dioxin-6-ylamino)-1-methyl-1H-[1,2,4]triazol-3-yl]-pyridin-2-yl}-pyridin-4-ylmethyl-amine] | 58
23 | CN(C)c1ccc(-c2nnc(Nc3ccc4c(c3)OCCO4)o2)c(NCc2cncnc2)c1 [Compound 234, (2,3-Dihydro-benzo[1,4]dioxin-6-yl)-(5-{4-dimethylamino-2-[(pyrimidin-5-ylmethyl)-amino]-phenyl}-[1,3,4]oxadiazol-2-yl)-amine] | 30
24 | COc1ccc(CNc2ncccc2-c2nnc(Nc3cc(OC)c(OC)c(OC)c3)o2)cc1 [Compound 188, (4-Methoxy-benzyl)-{3-[5-(3,4,5-trimethoxy-phenylamino)-[1,3,4]oxadiazol-2-yl]-pyridin-2-yl}-amine] | 56
25 | CS(=O)(=O)c1ccc(-c2nnc(-c3cccnc3NCCc3cccnc3)[nH]2)cc1 [Compound 99, {3-[5-(4-Methanesulfonyl-phenyl)-4H-[1,2,4]triazol-3-yl]-pyridin-2-yl}-(2-pyridin-3-yl-ethyl)-amine] | 47
26 | FC(F)(F)c1cccc(-c2nnc(-c3ccccc3NCc3ccc4c(c3)OCO4)[nH]2)c1 [Compound 152, Benzo[1,3]dioxol-5-ylmethyl-{2-[5-(3-trifluoromethyl-phenyl)-4H-[1,2,4]triazol-3-yl]-phenyl}-amine] | 73
